Source: the supplement of paper PMC5908809

Legend:
DERL-7 (IL-2 2.5 ng/mL) [1] = experiment: percent inhibition of viability; higher = more inhibition; settings: 72 h
[2] = system: normal primary NK cells, pool 2 (3 donors) (IL-2 2.5 ng/mL); experiment: as above; settings: 72 h
[3] = system: normal primary NK cells, pool 1 (3 donors) (IL-2 2.5 ng/mL); experiment: as above; settings: 72 h
KAI3 (IL-2 2.5 ng/mL) [4] = experiment: as above; settings: 72 h
NK-YS (IL-2 2.5 ng/mL) [5] = experiment: as above; settings: 72 h
IMC-1 (IL-2 20 ng/mL) [6] = experiment: as above; settings: 72 h
SNK-6 (IL-2 2.5 ng/mL) [7] = experiment: as above; settings: 72 h
[8] = system: normal primary NK cells, pool 1 (3 donors), resting (IL-2 0 ng/mL); experiment: as above; settings: 72 h
NK-92 (IL-2 2.5 ng/mL) [9] = experiment: as above; settings: 72 h
[10] = system: normal primary NK cells, pool 3 (3 donors) (IL-2 2.5 ng/mL); experiment: as above; settings: 72 h
KHYG-1 (IL-2 2.5 ng/mL) [11] = experiment: as above; settings: 72 h
NKL (IL-2 2.5 ng/mL) [12] = experiment: as above; settings: 72 h
YT (IL-2 2.5 ng/mL) [13] = experiment: as above; settings: 72 h
[14] = system: normal NK cells expanded with K562-aAPC; experiment: drug sensitivity score (DSS) (DSS units); higher = more sensitive; extreme values may be limits of the assay; settings: 72 h; IL-2 2.5 ng/mL
Description: (§1)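 Drug sensitivity and resistance testing on K562-aAPC-expanded normal NK cells: 5 concentrations (10-fold steps over a 10,000-fold range), 72 h at 37 °C, viability by CellTiter-Glo normalised to DMSO and benzethonium chloride controls; DSS from the fitted curve.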

[15] = system: normal NK cells expanded with K562-aAPC; experiment: percent inhibition of viability; higher = more inhibition; settings: 72 h, IL-2 2.5 ng/mL
Description: as §1

DERL-7 (IL-2 2.5 ng/mL) [16] = experiment: drug sensitivity score (DSS) (DSS units); higher = more sensitive; extreme values may be limits of the assay; settings: 72 h
[17] = system: normal primary NK cells, pool 2 (3 donors) (IL-2 2.5 ng/mL); experiment: as above; settings: 72 h
[18] = system: normal primary NK cells, pool 1 (3 donors) (IL-2 2.5 ng/mL); experiment: as above; settings: 72 h
KAI3 (IL-2 2.5 ng/mL) [19] = experiment: as above; settings: 72 h
NK-YS (IL-2 2.5 ng/mL) [20] = experiment: as above; settings: 72 h
IMC-1 (IL-2 20 ng/mL) [21] = experiment: as above; settings: 72 h
SNK-6 (IL-2 2.5 ng/mL) [22] = experiment: as above; settings: 72 h
[23] = system: normal primary NK cells, pool 1 (3 donors), resting (IL-2 0 ng/mL); experiment: as above; settings: 72 h
NK-92 (IL-2 2.5 ng/mL) [24] = experiment: as above; settings: 72 h
[25] = system: normal primary NK cells, pool 3 (3 donors) (IL-2 2.5 ng/mL); experiment: as above; settings: 72 h
KHYG-1 (IL-2 2.5 ng/mL) [26] = experiment: as above; settings: 72 h
NKL (IL-2 2.5 ng/mL) [27] = experiment: as above; settings: 72 h
YT (IL-2 2.5 ng/mL) [28] = experiment: as above; settings: 72 h

c1ccc([C@H]2CN3CCSC3=N2)cc1 [Levamisole] (max concentration tested 10000 nM)
percent inhibition of viability [%]
Settings	1 nM	10 nM	100 nM	1000 nM	10000 nM
DERL-7 (IL-2 2.5 ng/mL) [1]	-5.12	0.58	-3.2	-6.8	-8.1
IMC-1 (IL-2 20 ng/mL) [6]	0.36	-1.13	-6.73	-2.24	-6.39
KAI3 (IL-2 2.5 ng/mL) [4]	-7.01	-9.23	-10.5	-11.1	-14.3
KHYG-1 (IL-2 2.5 ng/mL) [11]	-4.84	-2.9	-4.9	-1.62	-2.11
NK-92 (IL-2 2.5 ng/mL) [9]	-11.8	-18.9	-18.4	-24.3	-19.2
NK-YS (IL-2 2.5 ng/mL) [5]	-2.25	-3.37	-7.18	-2.36	-6.1
NKL (IL-2 2.5 ng/mL) [12]	-11.2	0.14	-6.49	-4.45	-10.6
SNK-6 (IL-2 2.5 ng/mL) [7]	3.65	13.1	-14.1	-5.97	-47.5
YT (IL-2 2.5 ng/mL) [13]	-3.76	-6.23	-5.31	-5.18	-4.44
[2]	-4.91	-0.55	-10.1	-7.03	-10.1
[3]	-7.56	-2.22	4.92	-0.77	2.81
[8]	-4.85	-2.06	13.8	4.07	3.16
[10]	-8.31	-11.3	-9.28	-4.76	-5.98
[15]	-4.29	-11	-5.79	-6.94	-11

Settings	drug sensitivity score
DERL-7 (IL-2 2.5 ng/mL) [16]	0
IMC-1 (IL-2 20 ng/mL) [21]	0
KAI3 (IL-2 2.5 ng/mL) [19]	0
KHYG-1 (IL-2 2.5 ng/mL) [26]	0
NK-92 (IL-2 2.5 ng/mL) [24]	0
NK-YS (IL-2 2.5 ng/mL) [20]	0
NKL (IL-2 2.5 ng/mL) [27]	0
SNK-6 (IL-2 2.5 ng/mL) [22]	0
YT (IL-2 2.5 ng/mL) [28]	0
[14]	0
[17]	0
[18]	0
[23]	0
[25]	0

COc1cc2c(N3CCN(C(=O)Nc4ccc(OC(C)C)cc4)CC3)ncnc2cc1OCCCN1CCCCC1 [Tandutinib] (max concentration tested 1000 nM)
percent inhibition of viability [%]
Settings	0.1 nM	1 nM	10 nM	100 nM	1000 nM
DERL-7 (IL-2 2.5 ng/mL) [1]	6.14	3.13	1.63	2.2	-0.71
IMC-1 (IL-2 20 ng/mL) [6]	-5.53	-2.46	0.78	2.8	18.4
KAI3 (IL-2 2.5 ng/mL) [4]	-0.83	3.14	3.31	3.31	17.9
KHYG-1 (IL-2 2.5 ng/mL) [11]	3.28	0.15	6.9	6.14	16.8
NK-92 (IL-2 2.5 ng/mL) [9]	-7.68	0.56	17.9	8.5	19.1
NK-YS (IL-2 2.5 ng/mL) [5]	2.01	2.91	6.63	1.61	13.4
NKL (IL-2 2.5 ng/mL) [12]	-15.4	-9.75	-9.72	-2.92	7.53
SNK-6 (IL-2 2.5 ng/mL) [7]	2.47	-9.17	1.36	-17.2	-2.8
YT (IL-2 2.5 ng/mL) [13]	1.06	0.08	6.39	-0.96	9.65
[2]	-9.1	2.32	-0.09	-2.34	4.26
[3]	3.36	-11.3	-7.24	-22	-12.1
[8]	6.87	-8.83	-1.76	-7.72	-7.9
[10]	-11.8	-8.39	-1.84	-4.05	-10.6
[15]	0.5	4.31	2.45	1.29	8.72

Settings	drug sensitivity score
DERL-7 (IL-2 2.5 ng/mL) [16]	0
IMC-1 (IL-2 20 ng/mL) [21]	0.83
KAI3 (IL-2 2.5 ng/mL) [19]	0.84
KHYG-1 (IL-2 2.5 ng/mL) [26]	0.42
NK-92 (IL-2 2.5 ng/mL) [24]	4.33
NK-YS (IL-2 2.5 ng/mL) [20]	0
NKL (IL-2 2.5 ng/mL) [27]	0
SNK-6 (IL-2 2.5 ng/mL) [22]	0
YT (IL-2 2.5 ng/mL) [28]	0
[14]	0
[17]	0
[18]	0
[23]	0
[25]	0
